Experimental data as given in PubChem BioAssay AID330 (DTP/NCI, 2004).
Several values for one entry are separate records, joined by “and”; a condition that tells them apart may be missing. Equal entries are not always repeated. Toxic doses and inconclusive results are not listed. The calls were made as follows: active = survival T/C of 150% or more; inactive = T/C below 125% in these data.

Test system: P388 leukemia ip, CD2F1 mice, survival T/C
Experiment: NCI In Vivo Anticancer Drug Screen. Data for tumor model P388 Leukemia (intraperitoneal) in CD2F1 (CDF1) mice
Conditions: endpoint: median survival time, higher = longer survival
Summary of the method: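 Mice carrying the transplanted tumor received test compound or vehicle. Survival was recorded in each group, and the value is the treated-group measurement divided by that of the vehicle-treated control group.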

[1] = dose: 25.0 mg/kg/injection, schedule: Q01DX009 (ip), vehicle: saline with Tween-80
[2] = dose: 50.0 mg/kg/injection, schedule: Q01DX009 (ip), vehicle: saline with Tween-80
[3] = dose: 50.0 mg/kg/injection, schedule: Q01DX009 (ip), vehicle: saline
[4] = dose: 100.0 mg/kg/injection, schedule: Q01DX009 (ip), vehicle: saline
[5] = dose: 100.0 mg/kg/injection, schedule: Q01DX009 (ip), vehicle: saline with Tween-80
[6] = dose: 200.0 mg/kg/injection, schedule: Q01DX009 (ip), vehicle: saline with Tween-80
[7] = dose: 60.0 mg/kg/injection, schedule: Q01DX005 (ip), vehicle: saline with Tween-80
[8] = dose: 120.0 mg/kg/injection, schedule: Q01DX005 (ip), vehicle: saline with Tween-80
[9] = dose: 240.0 mg/kg/injection, schedule: Q01DX005 (ip), vehicle: saline with Tween-80
[10] = dose: 50.0 mg/kg/injection, schedule: Q01DX005 (ip), vehicle: Klucel (hydroxypropylcellulose) (HPC)
[11] = dose: 100.0 mg/kg/injection, schedule: Q01DX005 (ip), vehicle: Klucel (hydroxypropylcellulose) (HPC)
[12] = dose: 200.0 mg/kg/injection, schedule: Q01DX005 (ip), vehicle: Klucel (hydroxypropylcellulose) (HPC)
[13] = dose: 12.5 mg/kg/injection, schedule: Q01DX009 (ip), vehicle: Klucel (hydroxypropylcellulose) (HPC)
[14] = dose: 12.5 mg/kg/injection, schedule: Q01DX009 (ip), vehicle: saline
[15] = dose: 25.0 mg/kg/injection, schedule: Q01DX009 (ip), vehicle: Klucel (hydroxypropylcellulose) (HPC)
[16] = dose: 25.0 mg/kg/injection, schedule: Q01DX009 (ip), vehicle: saline
[17] = dose: 50.0 mg/kg/injection, schedule: Q01DX009 (ip), vehicle: Klucel (hydroxypropylcellulose) (HPC)

Measured: T/C

O=C1c2ccccc2C(=O)N1S(=O)(=O)C/C=C/CCl
inactive: dose: 12.5 mg/kg/injection, schedule: Q01DX009 (ip), vehicle: saline with Tween-80 94 % of control | [1] 97 % of control | [2] 105 % of control | [3] 110 % of control | [4] 103 % of control | dose: 200.0 mg/kg/injection, schedule: Q01DX009 (ip), vehicle: saline 108 % of control

O=C(O)C(Cc1ccccc1[N+](=O)[O-])N1C(=O)c2ccccc2C1=O (configuration not stated)
inactive: [2] 112 % of control | [5] 92 % of control | [6] 94 % of control | dose: 400.0 mg/kg/injection, schedule: Q01DX009 (ip), vehicle: saline with Tween-80 100 % of control

O=S(=O)(Oc1ccc2ccccc2c1)C(F)(F)C(F)(F)C(F)(F)C(F)(F)F
inactive: [2] 100 % of control | [5] 108 % of control | [6] 108 % of control

O=C(NC(Cc1ccc(O)cc1)C(=O)O)C(=O)c1c[nH]c2ccc([N+](=O)[O-])cc12 (configuration not stated)
inactive: [7] 97 % of control | [8] 97 % of control | [9] 89 % of control

CCOC(=O)/C(N=Nc1ccccc1Cl)=C(\C)O
inactive: [10] 101 % of control | [11] 101 % of control | [12] 101 % of control

CC1=CC(=Nc2ccc(N(CCCl)CCCl)cc2)C=C(C)C1=O
inactive: dose: 3.12 mg/kg/injection, schedule: Q01DX009 (ip), vehicle: Klucel (hydroxypropylcellulose) (HPC) 105 % of control | [14] 104 % of control and 118 % of control | [16] 114 % of control | dose: 50.0 mg/kg/injection, schedule: Q01DX009 (ip), vehicle: other 91 % of control
active: [13] 186 % of control | dose: 12.5 mg/kg/injection, schedule: Q01DX009 (ip), vehicle: other 153 % of control | [15] 173 % of control and 186 % of control | dose: 25.0 mg/kg/injection, schedule: Q01DX009 (ip), vehicle: other 235 % of control | [17] 170 % of control and 186 % of control | [3] 157 % of control | [4] 166 % of control

O=S1(=O)C2C=CC1CCCC2
inactive: [14] 95 % of control | [16] 90 % of control | [3] 92 % of control and 96 % of control

COc1cc(C2c3cc4c(cc3OC(C)(OC)C2C(C)=O)OCO4)cc(OC)c1O (configuration not stated)
inactive: [7] 91 % of control | [8] 95 % of control | [9] 97 % of control

CCOC(=O)C1(N)CCCC1
inactive: dose: 6.25 mg/kg/injection, schedule: Q01DX009 (ip), vehicle: saline 105 % of control and 86 % of control | [14] 100 % of control and 102 % of control | [16] 100 % of control and 96 % of control | [3] 114 % of control and 96 % of control

CC1C(=O)OC2C1CCC1(C)CCC(O)C(C)C21 (configuration not stated)
inactive: dose: 100.0 mg/kg/injection, schedule: Q04DX002 (ip), vehicle: saline with Tween-80 102 % of control | dose: 200.0 mg/kg/injection, schedule: Q04DX002 (ip), vehicle: saline with Tween-80 99 % of control | dose: 400.0 mg/kg/injection, schedule: Q04DX002 (ip), vehicle: saline with Tween-80 99 % of control

C=CC(=NC(C)(C)C)Nc1ccc(Cl)cc1
inactive: [2] 100 % of control | [5] 94 % of control | [6] 97 % of control

Cc1c(N)nc(C(CC(N)=O)NCC(N)C(N)=O)nc1C(=O)NC(C(=O)NC(C)C(O)C(C)C(=O)NC(C(=O)NCCc1nc(-c2nc(C(=O)NCCCNCCCc3ccccn3)cs2)cs1)C(C)O)C(OC1OC(CO)C(O)C(O)C1OC1OC(CO)C(O)C(OC(N)=O)C1O)c1cnc[nH]1 (configuration not stated)
inactive: dose: 0.25 mg/kg/injection, schedule: Q01DX009 (ip), vehicle: water 110 % of control | dose: 0.5 mg/kg/injection, schedule: Q01DX009 (ip), vehicle: water 104 % of control | dose: 1.0 mg/kg/injection, schedule: Q01DX009 (ip), vehicle: water 111 % of control | dose: 2.0 mg/kg/injection, schedule: Q01DX009 (ip), vehicle: water 101 % of control | dose: 4.0 mg/kg/injection, schedule: Q01DX009 (ip), vehicle: saline 104 % of control | dose: 8.0 mg/kg/injection, schedule: Q01DX009 (ip), vehicle: saline 104 % of control | dose: 16.0 mg/kg/injection, schedule: Q01DX009 (ip), vehicle: saline 112 % of control | dose: 32.0 mg/kg/injection, schedule: Q01DX009 (ip), vehicle: saline 105 % of control

CC(=O)O[C@@H]1C[C@@](C)(C(=O)[C@H]2COC(=O)C2)[C@@H]2CC(=O)O[C@@H]3C[C@H]4[C@H](C)C[C@H](O)C(=O)[C@]4(C)[C@@H]1[C@]23C
inactive: dose: 3.0 mg/kg/injection, schedule: Q01DX009 (ip), vehicle: saline + alcohol 98 % of control | dose: 6.0 mg/kg/injection, schedule: Q01DX009 (ip), vehicle: saline + alcohol 116 % of control | dose: 12.0 mg/kg/injection, schedule: Q01DX009 (ip), vehicle: saline + alcohol 107 % of control | dose: 24.0 mg/kg/injection, schedule: Q01DX009 (ip), vehicle: saline + alcohol 100 % of control | dose: 48.0 mg/kg/injection, schedule: Q01DX009 (ip), vehicle: saline + alcohol 107 % of control

CCCCCCCCCCCCCCCC[N+]1([O-])CCCCC1
inactive: [14] 101 % of control | [16] 108 % of control | [3] 100 % of control and 107 % of control

CC1=[N+]([O-])[N+]([O-])=C(c2ccccc2)C1=O
inactive: [1] 107 % of control | [2] 92 % of control | [5] 107 % of control

CC1c2ccccc2-c2ccccc2N1C(=O)c1cccc(C(=O)N2c3ccccc3-c3ccccc3C2C)n1 (configuration not stated)
inactive: [7] 93 % of control | [8] 98 % of control | [9] 90 % of control

CCCCOc1ccc2nc3cc(Cl)ccc3c(Cl)c2n1
inactive: dose: 6.25 mg/kg/injection, schedule: Q01DX005 (ip), vehicle: saline with Tween-80 92 % of control | dose: 12.5 mg/kg/injection, schedule: Q01DX005 (ip), vehicle: saline with Tween-80 93 % of control | dose: 25.0 mg/kg/injection, schedule: Q01DX005 (ip), vehicle: saline with Tween-80 86 % of control

CCCCCCCCCCCCCCCCCC(=O)[O][Pb]([CH3])([CH3])[CH3]
inactive: dose: 1.25 mg/kg/injection, schedule: Q01DX009 (ip), vehicle: Klucel (hydroxypropylcellulose) (HPC) 107 % of control | dose: 2.5 mg/kg/injection, schedule: Q01DX009 (ip), vehicle: Klucel (hydroxypropylcellulose) (HPC) 113 % of control | dose: 5.0 mg/kg/injection, schedule: Q01DX009 (ip), vehicle: Klucel (hydroxypropylcellulose) (HPC) 101 % of control | dose: 6.25 mg/kg/injection, schedule: Q04DX003 (ip), vehicle: Klucel (hydroxypropylcellulose) (HPC) 94 % of control | dose: 12.5 mg/kg/injection, schedule: Q04DX003 (ip), vehicle: Klucel (hydroxypropylcellulose) (HPC) 111 % of control | dose: 25.0 mg/kg/injection, schedule: Q04DX003 (ip), vehicle: Klucel (hydroxypropylcellulose) (HPC) 92 % of control

c1ccc2cc3n[se]nc3cc2c1
inactive: [7] 100 % of control | [8] 90 % of control

COc1cc2c(cc1O)C(C)Cc1cc3c(cc1N(C)CC2)OCO3 (configuration not stated)
inactive: dose: 100.0 mg/kg/injection, schedule: Q04DX002 (ip), vehicle: saline 106 % of control | dose: 200.0 mg/kg/injection, schedule: Q04DX002 (ip), vehicle: saline 113 % of control | dose: 400.0 mg/kg/injection, schedule: Q04DX002 (ip), vehicle: saline 103 % of control

CCOC(=O)C(=CNc1cc(OC)cc2cccnc12)C(=O)OCC
inactive: [10] 96 % of control | [11] 88 % of control | [12] 88 % of control

Cc1cc2cc(C3CCNCC3)oc2cc1C
inactive: [13] 100 % of control | [15] 100 % of control and 109 % of control | [17] 107 % of control and 109 % of control and 119 % of control

CCOC1c2cc3c(cc2NC(=O)N1C)OCO3 (configuration not stated)
inactive: dose: 37.5 mg/kg/injection, schedule: Q01DX009 (ip), vehicle: saline with Tween-80 97 % of control | dose: 75.0 mg/kg/injection, schedule: Q01DX009 (ip), vehicle: saline with Tween-80 94 % of control | dose: 150.0 mg/kg/injection, schedule: Q01DX009 (ip), vehicle: saline with Tween-80 100 % of control

COc1ccc(NC(=O)CCC(=O)CC(=O)c2ccc(C)cc2)cc1
inactive: [7] 105 % of control | [8] 106 % of control | [9] 101 % of control

COC1C(C(=O)CS(=O)Cc2ccccc2)OC2OC(C)(C)OC21 (configuration not stated)
inactive: dose: 60.0 mg/kg/injection, schedule: Q01DX005 (ip), vehicle: saline 104 % of control and 98 % of control | dose: 120.0 mg/kg/injection, schedule: Q01DX005 (ip), vehicle: saline 103 % of control | dose: 240.0 mg/kg/injection, schedule: Q01DX005 (ip), vehicle: saline 106 % of control and 108 % of control
